Measured values from patent US4529600A, “Pentadeuterioretinoids” (SRI International, priority 1982, dated 1985).

Experiments:
[1] = test system: keratinization in hamster tracheal organ culture; assay: tracheal organ culture assay: reversal of keratinization in hamster tracheal organ culture; format: cell-based; settings: 10 days in culture
Procedure: (§1) The ODC assay measures a compound's effect on the prevention of the induction of ODC. The tracheal organ culture assay measures a compound's ability to reverse keratinization. For comparison purposes retinoic acid was also tested by these assays.
The tracheal organ culture assay is carried out as follows. Tracheas are taken from hamsters that are in very early stages of vitamin A deficiency and placed in organ culture. At the time of culture, the animals are still gaining weight; the tracheal epithelium is generally low columnar or cuboidal, with only occasional patches of squamous metaplasia. Each trachea is opened from the larynx to the carina along the membranous dorsal wall and cultured in a serum-free medium (CMRL-1066; with crystalline bovine insulin, 0.1 μg/ml; hydrocortisone hemisuccinate, 0.1 μg/ml; glutamine, 2 mM; penicillin, 100 units/ml; and streptomycin,100 μg/ml, added). Cultures are gassed with 50% oxygen, 45% nitrogen, and 5% CO2. The culture dishes are rocked at 35.5-36.0 degrees to allow the tracheas contact with both gas and medium. All tracheas are grown in medium containing no retinoid for the first 3 days. At the end of 3 days, some tracheas are harvested; almost all of these tracheas have significant squamous metaplasia, and approximately 60% have keratinized lesions. The remaining tracheas are then divided into different groups which are treated with either: (1) retinoid dissolved in dimethylsulfoxide (final concentration of DMSO in culture medium is never greater than 0.1%) or (2) an equivalent amount of DMSO alone. Culture medium is changed three times a week, and all of the remaining tracheas are harvested at the end of 10 days in culture. Tracheas are fixed in 10% buffered formalin and embedded in paraffin. Cross sections of five micrometers are made through the mid-portion, stained with hematoxylin and eosin, and then scored with a microscope for the presence of keratin and keratohyaline granules, both of which are found in approximately 90% of control cultures that received no retinoid for the entire 10 day culture period.

ornithine decarboxylase = assay: ODC assay: inhibition of induction of ornithine decarboxylase by 12-O-tetradecanoylphorbol-13-acetate in mouse skin; format: in vivo, mouse (female Charles River CD-1); settings: topical, 1 hour before TPA (17 nmol)
Procedure: as §1
The ODC assay is carried out as follows. Female Charles River CD-1 mice from Charles River Breeding Laboratories, Wilmington, Mass., are used (age 7 to 9 weeks). The dorsal hair of the mice is shaved 1 to 2 days before testing, and only mice showing no hair regrowth are used. A single dose of 12-O-tetradecanoylphorbol-13-acetate (TPA) (10.5 μg, 17 nmol) in 0.2 mL of acetone is applied topically to the back of each mouse. The test compound, at one of three dose levels (1.7, 17, and 170 nmol), dissolved in 0.2 mL of acetone is applied 1 hour before the TPA treatment to the test groups; the control group is treated with acetone alone. The mice are killed by cervical dislocation five hours after TPA treatment. Determinations are done in triplicate.
The epidermis is obtained from the sacrificed animals. To obtain sufficient material, the dorsal skins from 2 to b 3 mice in each treatment group are pooled. The depilatory agent Nudit® (Helena Rubinstein, New York) is applied to the shaved area of the skin; after 5 minutes, it is washed off thoroughly with cold tap water. […]
The supernatant fraction remaining after centrifugation of the homogenate at 10,000×g for 30 seconds at 0° C. is used for the enzyme assay. Enzyme activity is determined using the microassay for ODC as described by Verma and Boutwell to measure the release of ^14 CO2 from DL-[1-^14 C]-ornithine (58 mCi/mmol) after incubation with the 10,000×g supernatant. […]
Radioactivity is measured using a toluene-based scintillant (4 g of PPO and 50 mg of POPOP/L of toluene) in a Beckman LS-250 liquid scintillation counter. Enzyme activity is determined in triplicate and expressed as nanomoles of CO2 released in 30 minutes per milligram of protein. […] The protein concentrations of the epidermal extracts are determined by the Lowry procedure, using bovine serum albumin as the standard.

SMILES	Reversal of Keratinization, Active Cultures (%) ([1]; 10^-9 M)	Reversal of Keratinization, Active/Total Cultures ([1]; 10^-9 M)	Reversal of Keratinization, Active Cultures (%) ([1]; 10^-10 M)	Reversal of Keratinization, Active/Total Cultures ([1]; 10^-10 M)	Inhibition of Induction of Ornithine Decarboxylase by 12-O-Tetradecanoylphorbol-13-acetate in Mouse Skin, % Inhibition of Control (ornithine decarboxylase; dose 1.7 nmol)	Inhibition of Induction of Ornithine Decarboxylase by 12-O-Tetradecanoylphorbol-13-acetate in Mouse Skin, % Inhibition of Control (ornithine decarboxylase; dose 17 nmol)	Reversal of Keratinization, Active Cultures (%) ([1]; 10^-8 M)	Reversal of Keratinization, Active/Total Cultures ([1]; 10^-8 M)
[2H]C([2H])([2H])C1=C(/C=C/C(C)=C/C=C/C(C)=C/C(=O)O)C(C)(C)CCC1([2H])[2H] [(E)-retinoic acid-4,4,18,18,18-d5]	100%	8/8	86%	6/7	90%	90%		
CC1=C(/C=C/C(C)=C/C=C/C(C)=C/C(=O)O)C(C)(C)CCC1 [(E)-retinoic acid]	88%	419/474	52%	134/256	87-91%		100%	236/236
